Measured values published in patent US20180280480A1, “COMPOSITIONS AND PEPTIDES HAVING DUAL GLP-1R AND GLP-2R AGONIST ACTIVITY” (priority 2014, published 2018).
Numbered stars: 1 amine (or outer) side, 2 acyl side, 3 side chain; on linkers, the order of the positions; unused ones are H or OH. Side chains are listed from the residue outwards. Ends that are not written are not given here. * marks the point of attachment. γGlu = O=C(O)[C@H](CCC(=O)[*:2])N[*:1]; Palmitoyl = CCCCCCCCCCCCCCCC(=O)*

T1: human GLP-2 receptor (human, UniProt O95838 1-553, limits assumed)
T1 sequence (looked up): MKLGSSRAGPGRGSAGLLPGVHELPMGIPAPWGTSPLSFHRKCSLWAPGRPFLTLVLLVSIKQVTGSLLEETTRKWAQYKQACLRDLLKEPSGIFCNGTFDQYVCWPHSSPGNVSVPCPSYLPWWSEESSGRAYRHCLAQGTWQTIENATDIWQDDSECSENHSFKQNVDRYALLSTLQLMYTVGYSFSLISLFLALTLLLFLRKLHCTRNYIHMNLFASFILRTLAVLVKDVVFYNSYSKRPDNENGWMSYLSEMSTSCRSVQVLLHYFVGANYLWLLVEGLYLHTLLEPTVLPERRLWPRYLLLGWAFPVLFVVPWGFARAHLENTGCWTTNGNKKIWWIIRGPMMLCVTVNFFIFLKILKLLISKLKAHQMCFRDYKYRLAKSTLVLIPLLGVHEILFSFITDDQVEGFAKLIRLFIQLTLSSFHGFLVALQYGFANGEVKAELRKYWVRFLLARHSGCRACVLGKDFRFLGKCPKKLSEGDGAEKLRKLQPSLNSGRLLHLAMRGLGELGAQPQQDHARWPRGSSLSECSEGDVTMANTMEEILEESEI


How the values were obtained:
[1] = system: C57BL/6J mice; assay: Acute food intake in C57BL/6J mice; assay type: in vivo; conditions: for Total food intake (g/animal): Day 0: 0-[…] (lights off), mean ± SEM
Protocol: The C57BL/6J mice arrived 7 days prior to the initiation of the study. During these days, animals were handled daily to accustom them to the experimental paradigm. At Day −1, the mice were randomised according to body weight to participate in one of following drug treatment groups (n=6-8 in each group): Group 1: vehicle. […] Group 3-5: SEQ ID NO 3; 3.0; 1.0; 0.3 mg/kg. Group 6-8: SEQ ID NO 4; 3.0; 1.0; 0.3 mg/kg. Group 9-11: SEQ ID NO 5; 3.0; 1.0; 0.3 mg/kg. Group 12-14: SEQ ID NO 6; 3.0; 1.0; 0.3 mg/kg. Group 15-17: SEQ ID NO 7; 3.0; 1.0; 0.3 mg/kg. Three days prior to initiation of dosing, all animals were handled daily and accustomed to the experimental conditions by subcutaneous mock injections (i.e. nipping the skin of the back). Baseline food intake was monitored four days prior to the study. Mice were randomized according to body weight on Day −1. Animals were subjected to two separate injections. First acute dose was administered prior to lights out at Day 0 and food intake was monitored 24 hours post dosing. On Day 3, mice were re-randomised into new treatment groups and dosed prior to lights out. Food intake was monitored 24 hours post dosing. Body weight was measured daily from Day −5 and throughout the study. The study was terminated on Day 5. […] Dosing took place prior to lights out in the afternoon (between 13.30 and 14.00). Doses were administered subcutaneously (dose volume 5 ml/kg). Food intake data was collected using the HM-2 system, an online computerized feeding system using digital weighing cells. Food intake and body weight were measured from Day −7 and throughout the study. […]

[2] = system: C57BL/6J mice; assay: GLP1R-GLP2R dual agonist compound study: cumulative food intake; assay type: in vivo
Description: Forty (40, n=10, 4 groups) male C57BL/6J mice obtained from Taconic, Denmark, were used. At the time of the experiment, the mice had reached an age of 9-10 weeks. The mice were acclimatized for one week in their new environment and offered regular chow diet (Altromin 1324, Brogaarden A/S, Denmark) and domestic quality tap water. Animals were housed two per cage during the study, in a light-, temperature-, and humidity-controlled room (12-hour light: 12-hour dark cycle, lights on/off at 4 AM/4 PM hour; 22±1° C.; 50±10% relative humidity). […] Animals were uniquely identified with implantable microchips (Pet ID Microchip, E-vet) in all mice upon arrival. Animals were identified using the WS-2 weight station (MBrose ApS, Faaborg, Denmark) connected to a laptop running the HM02Lab software (Ellegaard Systems, Faaborg, Denmark). The HM02Lab software matches the body weight with ID and calculates the dose directly based on the body weight. All mice were handled for 3 days prior to the experiment to acclimatize the animals to handling and injections.

[3] = system: C57BL/6J mice; assay: GLP1R-GLP2R dual agonist compound study: oral glucose tolerance test; assay type: in vivo
Protocol: On day 7, an oral glucose tolerance test (OGTT) was performed. Animals were mildly fasted as all food was removed 4 hours prior to the oral glucose load. Vehicle (SC) and compounds were administered subcutaneously (SC) 2 hours prior to the OGTT. At t=0 mice received an oral glucose load (2 g/kg; 4 ml/kg; 500 mg/ml, Fresenius Kabi, Sweden). Glucose was given as gavage via a gastrically-placed tube connected to a syringe ensuring accurate dosing. Blood glucose was measured from tail vein blood before glucose (at t=−120 and 0 min, baseline) and after glucose administration at t=15, 30, 60 and 120 min. Blood samples (tail vein) was collected into 10 μl heparinized glass capillary tubes and immediately suspended in buffer (0.5 ml of glucose/lactate system solution (EKF-diagnostics, Germany) and analyzed for glucose on the test day using a BIOSEN c-Line glucose meter (EKF-diagnostics, Germany) according to manufacturer's instructions. Results from the OGTT are listed below in Table 11.

[4] = system: C57BL/6J mice; assay: GLP1R-GLP2R dual agonist compound study: gut wet weight; assay type: in vivo
Description: On study day 8, the mice were terminated and the GI tract was removed for determination of the gut wet weight. The gut wet weight results are listed below in Table 12.

[5] = system: lean NMRI mice; assay: Acute effect on food intake in lean NMRI mice; assay type: in vivo; conditions: for Cumulative food intake following administration of a single dose: 50 nmol/kg s.c., mean ± S.E.M.
Protocol: All animals were housed in groups of four. The animal room environment were controlled (targeted ranges: temperature 22±2° C.; relative humidity 50±10%; light/dark cycle: 12 hours light, 12 hours dark, lights off from 14.00 to 02.00 hours). The mice had ad libitum access to Altromin (Brogaarden, Denmark) and tap water. Mice arrived 5 days prior to the initiation of the study and were transferred to the HM-2 system. From arrival day no food was provided in the cages thereby forcing the animals to learn to eat from the food channels thus habituating the animals faster to the HM-2 system. Food intake and body weight were measured from day −3 and throughout the study. Food intake data were collected using the HM-2 real-time food intake monitoring system, an online computerized feeding system using digital weighing cells. As the animals were uniquely identified with microchips, each individual mouse was identified by its corresponding microchip upon entry and exit from the food channel. The HM-2 system continuously and in real-time mode monitored feeding activity in two independent channels and recorded the start and finishing time of each meal and the amount of food consumed by each animal within the selected time interval without human intervention. The net food intake was calculated by the HM-2 control unit software (HMLab, MBRose, Faaborg, Denmark).
Doses were administered subcutaneously (dose volume 5 ml/kg), in the lower back region. Food intake was measured up to 68 hours following the dosing of the animals.

[6] = system: lean C57BL/6J mice; assay: Sub-acute effect on body weight in lean C57BL/6J mice; assay type: in vivo; conditions: for Body weight change in percent to baseline body weight: 50 nmol/kg BID SC, mean ± S.E.M.
Protocol: Eighteen (18) male C57/BL6J mice obtained from Janvier, France, were used. At the time of experimentation the mice had reached an age of 9 weeks. The mice were acclimatized for one week in their new environment and offered regular chow diet (Altromin 1324, Brogaarden A/S, Denmark) and domestic quality tap water. Animals were housed six per cage during the study, in a light-, temperature-, and humidity-controlled room (12-hour light:12-hour dark cycle, lights on/off at 4 AM/4 PM hour; 22±1° C.; 50±10% relative humidity).
Dosing volume was 5 ml/kg, SC.
The compounds were dissolved in PBS buffer containing 0.1% BSA, pH 7.4. The subcutaneous injections were placed at the lower back. All mice were handled for 3 days prior to experimentation to acclimatize the animals to handling and injections.

[7] = biological target: human GLP-1 receptor (human, UniProt P43220 24-463, limits assumed); assay: cell-based or functional assay
[8] = biological target: T1, human GLP-2 receptor; assay: cell-based or functional assay

Row | GLP-1R, EC50 [7] | GLP-2R, EC50 [8] | Molecule | Total food intake (g/animal) ([1]; single SC dose 0.3 mg/kg) | Total food intake (g/animal) ([1]; single SC dose 1 mg/kg) | Total food intake (g/animal) ([1]; single SC dose 3 mg/kg) | also measured
1 |  |  | HGDGSFTSELSTYLDNLAARDFINWLIQTKITD-NH2 (C-terminus assumed) [SEQ ID NO 7, R^1-HGDGSFTSELSTYLDNLAARDFINWLIQTKITDR^2] | 1.05 ± 0.41 g/animal | 0.47 ± 0.08 g/animal | 0.28 ± 0.12 g/animal | food intake after […] compared to vehicle ([1]; single dose 1-3 mg/kg): significantly reduced food intake
2 |  |  | R^1-HGDGSFTDELSTYLDALAARDFIAWLIQTKR^2 [SEQ ID NO 3] | 0.76 ± 0.37 g/animal | 0.66 ± 0.15 g/animal | 0.30 ± 0.08 g/animal | Cumulative food intake ([2]; Day 0-7, 3.0 mg/kg BID SC, mean ± S.E.M.): 26.03 ± 2.49 g; cumulative food intake compared to vehicle and teduglutide ([2]; dosed twice daily for 7 days): considerably reduced cumulative food intake; Oral glucose tolerance test AUC, 0-120 min ([3]; Day 7, 3.0 mg/kg BID SC, glucose 2 g/kg oral, mean ± S.E.M.): 503 ± 97 mmol·min/L; blood glucose compared to vehicle and teduglutide ([3]; dosed twice daily for 7 days): significantly reduced fasting blood glucose; Gut wet weight ([4]; Day 8, 3.0 mg/kg BID SC, mean ± S.E.M.): 3.3 ± 0.2 g; gut wet weight compared to vehicle and teduglutide ([4]; dosed twice daily for 8 days): significantly increased the gut wet weight
3 |  |  | R^1-HGDGSFTDELSTYLDNLAARDFIAWLIQTKITDR^2 [SEQ ID NO 5] | 0.69 ± 0.19 g/animal | 0.83 ± 0.18 g/animal | 0.26 ± 0.08 g/animal | 
4 |  |  | R^1-HGDGSFTSELSTYLDALAARDFINWLIQTKR^2 [SEQ ID NO 4] | 0.93 ± 0.06 g/animal | 0.79 ± 0.15 g/animal | 0.25 ± 0.08 g/animal | 
5 |  |  | R^1-H-G-D-G-S-F-T-S-E-L-S-T-Y-[K(C16-yE-)]-DALAARDFIAWLIQTKITDR^2 [SEQ ID NO 23] |  |  |  | acute food intake compared to vehicle ([5]; 12 and 24 hours after single dose of 50 nmol/kg): significantly reduce acute food intake to an similar extend as liraglutide; Cumulative food intake following administration of a single dose ([5]; 12 h after dosing): 1.82 ± 0.24 grams pr mice; Cumulative food intake following administration of a single dose ([5]; 24 h after dosing): 2.83 ± 0.22 grams pr mice; Cumulative food intake following administration of a single dose ([5]; 60 h after dosing): 11.43 ± 1.97 grams pr mice; food intake compared to vehicle ([5]; 60 hours after single dose of 50 nmol/kg): tends to still have an effect; effect on body weight ([6]; 50 nmol/kg, after two days of administration, sustained up to seven days): significantly reduced the body weight; Body weight change in percent to baseline body weight ([6]; Day 0): 100.0 ± 0.0%; Body weight change in percent to baseline body weight ([6]; Day 2): 90.7 ± 0.8 %; Body weight change in percent to baseline body weight ([6]; Day 5): 89.5 ± 1.8 %; Body weight change in percent to baseline body weight ([6]; Day 7): 90.8 ± 1.4 %
6 | 0.338 nM | 5.6 nM | HGDGSFTSELSTYLDK([γGlu-Palmitoyl])LAARDFIAWLIQTKITD [SEQ ID NO 24] |  |  |  | 
7 | > 10 nM | > 100 nM | HGDGSFK([γGlu-Palmitoyl])SELSTYLDALAARDFIAWLIQTKITD [SEQ ID NO 19] |  |  |  | 
8 | > 10 nM | 4.25 nM | HGDGSFTSELK([γGlu-Palmitoyl])TYLDALAARDFIAWLIQTKITD [SEQ ID NO 21] |  |  |  | 
9 | 0.543 nM | 6.61 nM | HGDGSFTSELSK([γGlu-Palmitoyl])YLDALAARDFIAWLIQTKITD [SEQ ID NO 22] |  |  |  | 
10 | 0.319 nM | 1.93 nM | HGDGSFTSELSTYLDAK([γGlu-Palmitoyl])AARDFIAWLIQTKITD [SEQ ID NO 25] |  |  |  | 
11 | 0.658 nM | > 100 nM | HGDGSFTSELSTYLDALAAK([γGlu-Palmitoyl])DFIAWLIQTKITD [SEQ ID NO 26] |  |  |  | 
12 | 0.169 nM | 1.06 nM | HGDGSFTSELSTYK([γGlu-Palmitoyl])DALAARDFIAWLIQTKITD [SEQ ID NO 23] |  |  |  | 
